{
  "source": "patent US20160010155A1",
  "about": "“KCNK3 Channel Loss-of-Function Mutants in Familial and Idiopathic Pulmonary Arterial Hypertension” (THE TRUSTEES OF COLUMBIA UNIVERSITY IN THE CITY OF NEW YORK, priority 2013, published 2016)",
  "key": {"TASK-1": {"target": "TASK-1 (Homo sapiens, UniProt O14649)", "sequence (O14649 whole entry)": "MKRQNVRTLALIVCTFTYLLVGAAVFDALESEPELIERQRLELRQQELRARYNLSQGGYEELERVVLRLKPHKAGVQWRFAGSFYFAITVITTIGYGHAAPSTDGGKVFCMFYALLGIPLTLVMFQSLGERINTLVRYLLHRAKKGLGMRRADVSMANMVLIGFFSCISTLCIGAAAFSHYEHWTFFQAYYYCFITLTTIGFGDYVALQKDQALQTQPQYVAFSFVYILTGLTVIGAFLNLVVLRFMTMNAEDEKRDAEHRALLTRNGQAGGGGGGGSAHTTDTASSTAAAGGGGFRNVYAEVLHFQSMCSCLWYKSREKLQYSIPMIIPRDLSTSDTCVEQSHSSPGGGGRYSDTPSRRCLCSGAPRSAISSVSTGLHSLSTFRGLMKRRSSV", "conditions": "cited from earlier work"}, "WT hKCNK3 channel": {"target": "T1, WT hKCNK3 channel (Homo sapiens, UniProt O14649)", "T1 construct": "expressed in transfected cells; host or cells: COS-7", "T1 sequence (O14649 whole entry)": "as above", "experiment": "Whole-cell patch clamp of WT hKCNK3 channels expressed in COS-7 cells, drug application", "type": "cell-based", "conditions": "10 μM, current at +60 mV, pH 7.4", "experimental": "Functional analysis of the KCNK3 channel was performed to evaluate the functional effects of the rare genetic variants identified and to provide insight into the disease mechanism. pIRES-CD8-hKCNK3 was kindly provided by Florian Lesage (Institut de Pharmacologie Moléculaire et Cellulaire, Centre National de la Recherche Scientifique and Université de Nice Sophia Antipolis, Valbonne, France). hKCNK3 DNA was amplified and inserted into pcDNA 3.1 (+) vector (Invitrogen). Site-directed mutagenesis was performed using the QuikChange kit (Stratagene) and all constructs were sequenced before use. COS-7 cells (American Type Culture Collection) were grown under conventional conditions (5% CO2, DMEM (Gibco) +GlutaMax medium (Gibco) and 10% fetal bovine serum (Gibco)). […] The topology of the KCNK3 channel was based on the crystal structure of TWIK-1 channel^43 and alignment was performed using GeneDoc.^44 Membrane currents were measured with whole-cell patch-clamp procedures using Axopatch 200B amplifiers (Axon Instruments). […] Current measured at +60 mV was selected for comparison of constructs and drug actions. […] Analyzed data are shown as mean+/−S.E.M. Statistical significance was determined using one-way ANOVA. p<0.05 was considered statistically significant. […]"}, "[1]": {"conditions": "cited from earlier work"}},
  "data": [
    {"molecule": "FC(F)(F)C(Cl)Br", "note": "(stereo not drawn) [Halothane, 2-bromo-2-chloro-1,1,1-trifluoroethane]", "values": [
      {"measurement": "effect on TASK-1 channel", "setting": "TASK-1", "value": "activated"}
    ]},
    {"molecule": "FC(F)OC(Cl)C(F)(F)F", "note": "(stereo not drawn) [Isoflurane, 2-chloro-2-(difluoromethoxy)-1,1,1-trifluoro-ethane]", "values": [
      {"measurement": "effect on TASK-1 channel", "setting": "TASK-1", "value": "activated"}
    ]},
    {"molecule": "CCCCCc1ccc(/C=C/C(=O)Nc2cc(Cl)ccc2C(=O)O)cc1", "note": "[ONO RS-082]", "values": [
      {"measurement": "WT hKCNK3 current after application of drug", "setting": "WT hKCNK3 channel", "value": "robust increase"}
    ]},
    {"molecule": "CCCCC[C@H](O)CC[C@@H]1[C@H]2Cc3cccc(OCC(=O)O)c3C[C@H]2C[C@H]1O", "note": "[Treprostinil]", "values": [
      {"measurement": "dose linearity of pharmacokinetics", "setting": "[1]; continuous subcutaneous, dose range 1.25 to 125 ng/kg/min, two-compartment model", "value": "linear"},
      {"measurement": "excreted in feces", "setting": "[1]; in vivo", "value": 13, "unit": "%"},
      {"measurement": "excreted in the urine as identified metabolites", "setting": "[1]; in vivo", "value": 64, "unit": "%"},
      {"measurement": "excreted in the urine as unchanged drug", "setting": "[1]; in vivo", "value": 4, "unit": "%"},
      {"measurement": "half life", "setting": "[1]; in vivo", "value": 4, "unit": "h"},
      {"measurement": "metabolism", "setting": "[1]; in vivo", "value": "substantially metabolized by the liver"}
    ]}
  ]
}
